Test results as given in ChEMBL document CHEMBL3576820, “Discovery of benzimidazole oxazolidinediones as novel and selective nonsteroidal mineralocorticoid receptor antagonists” (ACS Med Chem Lett, 2015).
pKi: −log10 of the molar value. Active and inactive are the calls of the source. The calls are words filed in the database; no cut-off is given here.

Experiments:
Rattus norvegicus = assay: Natriuretic activity in po dosed WKY rat measured over 6 hrs; format: functional, organism-based
[1] = molecular target: T1, Mineralocorticoid receptor (Homo sapiens, UniProt P08235); assay: Binding affinity to mineralocorticoid receptor (unknown origin)
T1 sequence (P08235 whole entry): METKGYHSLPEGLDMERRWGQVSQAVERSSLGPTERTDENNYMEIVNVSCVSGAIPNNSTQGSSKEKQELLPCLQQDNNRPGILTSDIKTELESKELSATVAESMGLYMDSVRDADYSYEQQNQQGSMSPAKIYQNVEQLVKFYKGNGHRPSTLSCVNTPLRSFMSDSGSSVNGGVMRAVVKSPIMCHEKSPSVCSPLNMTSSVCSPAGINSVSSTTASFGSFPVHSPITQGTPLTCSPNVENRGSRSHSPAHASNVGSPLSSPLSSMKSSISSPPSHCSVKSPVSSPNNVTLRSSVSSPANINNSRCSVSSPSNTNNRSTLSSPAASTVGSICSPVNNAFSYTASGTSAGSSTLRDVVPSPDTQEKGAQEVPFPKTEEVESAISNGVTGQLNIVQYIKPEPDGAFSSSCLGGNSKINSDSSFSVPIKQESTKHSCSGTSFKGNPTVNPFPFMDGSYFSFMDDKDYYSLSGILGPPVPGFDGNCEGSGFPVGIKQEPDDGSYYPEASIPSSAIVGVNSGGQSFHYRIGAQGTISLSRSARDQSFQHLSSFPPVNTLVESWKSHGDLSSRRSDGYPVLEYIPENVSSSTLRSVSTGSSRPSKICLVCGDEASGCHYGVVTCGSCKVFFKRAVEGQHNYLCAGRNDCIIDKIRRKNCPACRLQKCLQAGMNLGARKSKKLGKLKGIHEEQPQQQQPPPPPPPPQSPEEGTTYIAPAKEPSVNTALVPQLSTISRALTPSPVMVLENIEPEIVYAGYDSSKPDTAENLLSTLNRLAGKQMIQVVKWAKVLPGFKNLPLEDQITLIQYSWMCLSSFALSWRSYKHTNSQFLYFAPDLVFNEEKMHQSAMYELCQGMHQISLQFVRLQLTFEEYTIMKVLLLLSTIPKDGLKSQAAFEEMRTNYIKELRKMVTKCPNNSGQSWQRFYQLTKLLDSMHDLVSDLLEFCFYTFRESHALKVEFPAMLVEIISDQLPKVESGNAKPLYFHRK

Homo sapiens [2] = organism: Homo sapiens; assay: Selectivity ratio of IC50 for human androgen receptor to IC50 for human mineralocorticoid receptor
Homo sapiens [3] = organism: Homo sapiens; assay: Selectivity ratio of IC50 for human estrogen receptor alpha to IC50 for human mineralocorticoid receptor
Homo sapiens [4] = organism: Homo sapiens; assay: Selectivity ratio of IC50 for human glucocorticoid receptor to IC50 for human mineralocorticoid receptor
Homo sapiens [5] = organism: Homo sapiens; assay: Selectivity ratio of IC50 for human progesterone receptor beta to IC50 for human mineralocorticoid receptor

Row | pKi [1] | Ratio IC50 (Homo sapiens [2]) | Ratio IC50 (Homo sapiens [3]) | Ratio IC50 (Homo sapiens [4]) | Ratio IC50 (Homo sapiens [5]) | Structure (SMILES) | Activity (Rattus norvegicus)
1 | – | – | – | – | – | C[C@H](c1ccc(F)cc1)N1C(=O)O[C@](Cc2ccccc2)(c2nc3cc(NS(C)(=O)=O)ccc3[nH]2)C1=O | Active
2 | 8.70 | – | – | – | – | C[C@H](c1ccc(F)cc1)N1C(=O)O[C@](Cc2ccccc2)(c2nc3cc(Cl)ccc3[nH]2)C1=O | Active
3 | – | 110 | > 40 | > 40 | > 40 | C[C@H](c1ccc(F)cc1)N1C(=O)O[C@](Cc2ccccc2)(c2nc3cc(-c4cccnc4)ccc3[nH]2)C1=O | Active
4 | – | 90 | > 40 | > 40 | > 40 | Cc1nocc1-c1ccc2[nH]c([C@@]3(Cc4ccccc4)OC(=O)N([C@H](C)c4ccc(F)cc4)C3=O)nc2c1 | –
5 | – | > 40 | > 40 | > 40 | > 40 | C[C@H](c1ccc(F)cc1)N1C(=O)O[C@](Cc2ccccc2)(c2nc3cc(N4CCOCC4)ccc3[nH]2)C1=O | Dose-dependent effect
